Reference: patent US11912703B2, “6-azaindole compounds” (BRISTOL-MYERS SQUIBB COMPANY, priority 2017, dated 2024)

Tests used:
human TLR7 = human TLR7 (Homo sapiens (Human), UniProt Q9NYK1); experiment: TLR7 inhibition reporter assay (HEK-Blue SEAP); format: cell-based; settings: HEK-Blue cells overexpressing human TLR7, gardiquimod 7.5 μM stimulation
human TLR8 = human TLR8 (Homo sapiens (Human), UniProt Q9NR97); experiment: TLR8 inhibition reporter assay (HEK-Blue SEAP); settings: read-out: TLR8 IC50; HEK-Blue cells overexpressing human TLR8, R848 15.9 μM stimulation, SEAP reporter;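 note: SEAP driven by IFN-β minimal promoter with five NF-κB and AP-1 sites, compounds tested 0.05 nM to 50 µM, 22 h incubation, inhibition relative to agonist plus DMSO wells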
Experimental: HEK-Blue™-cells (Invivogen) overexpressing human TLR7, TLR8 or TLR9 receptors were used for screening inhibitors of these receptors using an inducible SEAP (secreted embryonic alkaline phosphatase) reporter gene under the control of the IFN-β minimal promoter fused to five NF-κB and AP-1-binding sites. Briefly, cells are seeded into Greiner 384 well plates (15000 cells per well for TLR7, 20,000 for TLR8 and 25,000 for TLR9) and then treated with test compounds in DMSO to yield a final dose response concentration range of 0.05 nM-50 μM. After a 30 minute compound pre-treatment at room temperature, the cells are then stimulated with a TLR7 ligand (gardiquimod at a final concentration of 7.5 μM), TLR8 ligand (R848 at a final concentration of 15.9 μM) or TLR9 ligand (ODN2006 at a final concentration of 5 nM) to activate NF-κB and AP-1 which induce the production of SEAP. After a 22 hour incubation at 37° C., 500 CO2, SEAP levels are determined with the addition of HEK-Blue™ Detection reagent (Invivogen), a cell culture medium that allows for detection of SEAP, according to manufacturer's specifications.

human TLR9 = human TLR9 (Homo sapiens (Human), UniProt Q9NR96); experiment: TLR9 inhibition reporter assay (HEK-Blue SEAP); settings: read-out: TLR9 IC50; HEK-Blue cells overexpressing human TLR9, ODN2006 5 nM stimulation, SEAP reporter;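 note: SEAP driven by IFN-β minimal promoter carrying five NF-κB and AP-1 sites, 22 h at 37 °C, compounds 0.05 nM–50 µM, inhibition scaled between agonist-plus-DMSO and reference-inhibitor wells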
Chain of human TLR9 (Q9NR96 26-1032): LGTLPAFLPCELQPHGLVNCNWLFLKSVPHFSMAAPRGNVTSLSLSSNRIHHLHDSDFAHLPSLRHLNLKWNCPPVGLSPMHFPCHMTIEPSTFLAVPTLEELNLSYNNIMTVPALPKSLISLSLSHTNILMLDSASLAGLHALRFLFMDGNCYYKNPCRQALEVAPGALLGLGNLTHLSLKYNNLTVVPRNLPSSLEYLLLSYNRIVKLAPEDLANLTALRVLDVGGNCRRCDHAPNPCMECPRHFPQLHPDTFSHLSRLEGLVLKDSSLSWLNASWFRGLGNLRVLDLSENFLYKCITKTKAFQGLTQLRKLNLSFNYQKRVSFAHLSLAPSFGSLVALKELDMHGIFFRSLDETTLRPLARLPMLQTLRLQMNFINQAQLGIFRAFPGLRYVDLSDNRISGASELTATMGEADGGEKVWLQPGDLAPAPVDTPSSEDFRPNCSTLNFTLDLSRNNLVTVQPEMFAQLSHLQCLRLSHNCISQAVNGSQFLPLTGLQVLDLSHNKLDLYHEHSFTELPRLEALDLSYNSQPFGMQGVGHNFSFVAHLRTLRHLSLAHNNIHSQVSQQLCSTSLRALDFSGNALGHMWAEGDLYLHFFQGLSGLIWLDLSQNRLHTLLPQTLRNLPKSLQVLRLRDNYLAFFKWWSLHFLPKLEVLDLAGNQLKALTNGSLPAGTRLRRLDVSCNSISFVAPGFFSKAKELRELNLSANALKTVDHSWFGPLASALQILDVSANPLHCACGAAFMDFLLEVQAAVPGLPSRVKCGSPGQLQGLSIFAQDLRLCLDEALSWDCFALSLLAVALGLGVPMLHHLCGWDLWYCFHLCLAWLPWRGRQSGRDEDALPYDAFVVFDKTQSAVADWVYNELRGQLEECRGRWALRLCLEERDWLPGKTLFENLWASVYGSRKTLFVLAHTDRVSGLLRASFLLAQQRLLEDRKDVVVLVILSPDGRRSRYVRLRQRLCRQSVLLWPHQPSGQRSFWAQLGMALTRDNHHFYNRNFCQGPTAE

Chain of human TLR7 (Q9NYK1 27-1049): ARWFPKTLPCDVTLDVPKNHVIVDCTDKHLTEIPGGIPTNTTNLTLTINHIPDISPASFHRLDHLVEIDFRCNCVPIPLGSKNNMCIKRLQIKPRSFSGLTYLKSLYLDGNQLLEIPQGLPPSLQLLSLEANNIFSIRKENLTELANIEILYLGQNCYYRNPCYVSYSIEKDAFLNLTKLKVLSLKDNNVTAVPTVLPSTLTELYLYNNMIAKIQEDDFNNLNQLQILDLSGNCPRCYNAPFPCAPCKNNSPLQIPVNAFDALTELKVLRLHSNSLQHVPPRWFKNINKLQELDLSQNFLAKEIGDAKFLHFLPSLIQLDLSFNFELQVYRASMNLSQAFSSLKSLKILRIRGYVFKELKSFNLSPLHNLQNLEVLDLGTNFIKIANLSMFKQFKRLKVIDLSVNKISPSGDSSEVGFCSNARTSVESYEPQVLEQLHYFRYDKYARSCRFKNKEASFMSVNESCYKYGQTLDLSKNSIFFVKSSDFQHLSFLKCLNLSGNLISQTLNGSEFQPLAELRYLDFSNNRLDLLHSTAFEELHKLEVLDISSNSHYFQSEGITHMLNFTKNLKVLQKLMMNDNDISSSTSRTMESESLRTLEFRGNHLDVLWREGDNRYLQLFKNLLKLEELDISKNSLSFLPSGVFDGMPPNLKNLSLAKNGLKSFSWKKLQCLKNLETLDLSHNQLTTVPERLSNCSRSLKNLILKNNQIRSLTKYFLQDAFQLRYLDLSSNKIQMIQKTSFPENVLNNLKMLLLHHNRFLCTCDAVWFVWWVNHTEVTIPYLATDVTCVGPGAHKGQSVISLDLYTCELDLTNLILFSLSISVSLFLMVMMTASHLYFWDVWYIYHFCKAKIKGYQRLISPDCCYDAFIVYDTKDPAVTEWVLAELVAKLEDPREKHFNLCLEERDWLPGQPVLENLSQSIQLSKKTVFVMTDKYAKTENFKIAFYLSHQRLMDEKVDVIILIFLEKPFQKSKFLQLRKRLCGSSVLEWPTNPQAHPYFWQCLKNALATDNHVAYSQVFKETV
Chain of human TLR8 (Q9NR97 27-1041): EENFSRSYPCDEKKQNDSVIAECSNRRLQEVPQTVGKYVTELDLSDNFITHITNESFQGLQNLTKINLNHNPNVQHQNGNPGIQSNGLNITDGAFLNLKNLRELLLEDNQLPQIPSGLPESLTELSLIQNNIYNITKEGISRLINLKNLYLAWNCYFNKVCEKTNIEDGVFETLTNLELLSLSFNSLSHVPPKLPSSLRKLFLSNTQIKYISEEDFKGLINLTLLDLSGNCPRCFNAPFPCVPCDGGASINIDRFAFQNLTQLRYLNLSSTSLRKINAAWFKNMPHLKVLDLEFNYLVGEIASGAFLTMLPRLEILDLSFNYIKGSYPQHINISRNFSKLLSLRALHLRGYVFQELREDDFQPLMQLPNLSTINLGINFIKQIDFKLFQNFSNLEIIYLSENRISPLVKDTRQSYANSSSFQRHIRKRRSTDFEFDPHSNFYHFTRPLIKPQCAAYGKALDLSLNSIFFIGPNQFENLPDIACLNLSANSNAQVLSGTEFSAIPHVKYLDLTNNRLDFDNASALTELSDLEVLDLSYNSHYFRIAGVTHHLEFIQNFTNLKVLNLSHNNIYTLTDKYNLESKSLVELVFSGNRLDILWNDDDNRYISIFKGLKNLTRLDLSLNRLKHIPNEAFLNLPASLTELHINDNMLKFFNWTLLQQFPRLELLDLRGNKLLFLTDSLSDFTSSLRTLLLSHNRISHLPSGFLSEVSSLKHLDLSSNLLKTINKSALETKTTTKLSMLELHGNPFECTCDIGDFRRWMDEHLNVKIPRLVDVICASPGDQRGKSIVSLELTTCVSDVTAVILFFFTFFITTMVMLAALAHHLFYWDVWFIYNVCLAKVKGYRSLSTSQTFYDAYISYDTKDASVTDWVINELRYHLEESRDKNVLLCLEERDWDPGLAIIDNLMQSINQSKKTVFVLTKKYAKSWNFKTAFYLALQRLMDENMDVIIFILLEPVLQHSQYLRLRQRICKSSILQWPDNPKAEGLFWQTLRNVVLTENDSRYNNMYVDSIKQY

Row | IC50 (human TLR7) | IC50 (human TLR8) | IC50 (human TLR9) | Compound
1 | 1.6 nM | 4.2 nM | 333 nM | COc1cc(-c2[nH]c3cnc(C4CCC(NCC(C)(C)F)CC4)c(C)c3c2C(C)C)cn2ncnc12 (stereo not drawn) [Example 271]
2 | 7 nM | 22 nM | 391 nM | CCN(C)C1CCC(c2cc3c(C(C)C)c(-c4cc(OC)c5ncnn5c4)[nH]c3cn2)C1 (stereo not drawn) [Example 272]
3 | 8.6 nM | 16 nM | 376 nM | COc1cc(-c2[nH]c3cnc(C4CCC(NC5COC5)C4)cc3c2C(C)C)cn2ncnc12 (stereo not drawn) [Example 273]
4 | 42 nM | 35 nM | 648 nM | COc1cc(-c2[nH]c3cnc(C4CCC(NC5COC5)C4)cc3c2C(C)C)cn2ncnc12 (stereo not drawn) [Example 274]
5 | 35 nM | 37 nM | 845 nM | COc1cc(-c2[nH]c3cnc(C4CCC(NCC5(C)COC5)C4)cc3c2C(C)C)cn2ncnc12 (stereo not drawn) [Example 275]
6 | 7.7 nM | 1.2 nM | 114 nM | COc1cc(-c2[nH]c3cnc(C4CCC(NCC5(C)COC5)C4)cc3c2C(C)C)cn2ncnc12 (stereo not drawn) [Example 276]
7 | 5.5 nM | 13 nM | 265 nM | Cc1c(-c2[nH]c3cnc(C4CCC(NC(C)C)CC4)c(C)c3c2C(C)C)cn2ncnc2c1C (stereo not drawn) [Example 277]
8 | 0.79 nM | 0.58 nM | 1100 nM | COc1cc(-c2[nH]c3cnc(N4CCC(N5CCOCC5)CC4)c(C)c3c2C(C)C)cn2ncnc12 [Example 278]
9 | 0.65 nM | 1.5 nM | 1110 nM | Cc1c(N2CCC(N3CCC3)CC2)ncc2[nH]c(-c3cc(C)c4ncnn4c3)c(C(C)C)c12 [Example 279]
10 | 1.3 nM | 1.2 nM | 2500 nM | Cc1c(N2CCC(N(C)CCC#N)CC2)ncc2[nH]c(-c3cc(C)c4ncnn4c3)c(C(C)C)c12 [Example 280]
11 | 16 nM | 43 nM | 36400 nM | Cc1c(N2CCC(N3CCS(=O)(=O)CC3)CC2)ncc2[nH]c(-c3cc(C)c4ncnn4c3)c(C(C)C)c12 [Example 281]
12 | 1.1 nM | 0.97 nM | 1070 nM | Cc1c(N2CCC(N3CCOCC3)CC2)ncc2[nH]c(-c3cc(C)c4ncnn4c3)c(C(C)C)c12 [Example 282]
13 | 0.46 nM | 0.27 nM | 1620 nM | Cc1c(N2CCC(NCC(C)(C)O)CC2)ncc2[nH]c(-c3cc(C)c4ncnn4c3)c(C(C)C)c12 [Example 283]
14 | 8.3 nM | 14 nM | 23500 nM | Cc1c(N2CCC(N3CCNC(=O)C3)CC2)ncc2[nH]c(-c3cc(C)c4ncnn4c3)c(C(C)C)c12 [Example 284]
15 | 1.3 nM | 1.6 nM | 1870 nM | Cc1c(N2CCC(N3CCN(S(C)(=O)=O)CC3)CC2)ncc2[nH]c(-c3cc(C)c4ncnn4c3)c(C(C)C)c12 [Example 285]
16 | 2.2 nM | 2.2 nM | 2860 nM | CCN(CCC#N)C1CCN(c2ncc3[nH]c(-c4cc(C)c5ncnn5c4)c(C(C)C)c3c2C)CC1 [Example 286]
17 | 2 nM | 16 nM | 718 nM | CNC(=O)CN1CCC(c2cc3c(C(C)C)c(-c4cc(C)c5ncnn5c4)[nH]c3cn2)CC1 [Example 287]
18 | 20 nM | 7.1 nM | > 50000 nM | COc1cc(-c2[nH]c3cnc(N4CCN(CCS(C)(=O)=O)CC4)cc3c2C(C)C)cn2ncnc12 [Example 290]
19 | 3 nM | 4.9 nM | 494 nM | CNCC(=O)N1CCN(c2ncc3[nH]c(-c4cc(OC)c5ncnn5c4)c(C(C)C)c3c2Cl)CC1 [Example 291]
20 | 7 nM | 47 nM | 303 nM | CNC(=O)CN1CCC(c2cc3c(C(C)C)c(-c4cc(OC)c5ncnn5c4)[nH]c3cn2)CC1 [Example 292]
21 | 3.1 nM | 4.7 nM | 29100 nM | CNC(=O)CN1CCN(c2ncc3[nH]c(-c4cc(OC)c5ncnn5c4)c(C(C)C)c3c2Cl)CC1 [Example 293]
22 | 3 nM | 4.7 nM | 7630 nM | COc1cc(-c2[nH]c3cnc(N4CCN(CCS(C)(=O)=O)CC4)c(Cl)c3c2C(C)C)cn2ncnc12 [Example 294]
23 | 3.3 nM | 5.4 nM | 132 nM | COc1cc(-c2[nH]c3cnc(C4CCN(CC(C)(C)O)CC4)cc3c2C(C)C)cn2ncnc12 [Example 296]
24 | > 3120 nM | > 3120 nM | 17900 nM | Cc1cc(-c2[nH]c3cnc(N4CCN(CC(=O)N(C)C)CC4)cc3c2C(C)C)cn2ncnc12 [Example 297]
25 | 14 nM | 75 nM | 459 nM | COc1cc(-c2[nH]c3cnc(C4CCN(CC(=O)N(C)C)CC4)cc3c2C(C)C)cn2ncnc12 [Example 298]
26 | 2.9 nM | 25 nM | 356 nM | Cc1cc(-c2[nH]c3cnc(C4CCN(CC(=O)N(C)C)CC4)cc3c2C(C)C)cn2ncnc12 [Example 299]

Row | IC50 (human TLR7) | IC50 (human TLR8) | IC50 (human TLR9) | Compound
27 | 13 nM | 1.6 nM | 11900 nM | COc1cc(-c2[nH]c3cnc(N4CCN(CC(=O)N(C)C)CC4)cc3c2C(C)C)cn2ncnc12 [Example 300]
28 | > 3120 nM | > 3120 nM | 2680 nM | Cc1cc(-c2[nH]c3cnc(N4CCNCC4)cc3c2C(C)C)cn2ncnc12 [Example 301]
29 | 1590 nM | > 3120 nM | > 50000 nM | CNC(=O)CN1CCN(c2cc3c(C(C)C)c(-c4cc(C)c5ncnn5c4)[nH]c3cn2)CC1 [Example 302]
30 | 1.5 nM | 2.2 nM | 505 nM | COc1cc(-c2[nH]c3cnc(N4CCN(C(=O)CN(C)C)CC4)c(Cl)c3c2C(C)C)cn2ncnc12 [Example 304]
31 | 2.5 nM | 1.4 nM | 2830 nM | COc1cc(-c2[nH]c3cnc(N4CCN(CC(=O)N(C)C)CC4)c(Cl)c3c2C(C)C)cn2ncnc12 [Example 305]
32 | 3.9 nM | 16 nM | 786 nM | COc1cc(-c2[nH]c3cnc(C4CCN(C5COC5)CC4)cc3c2C(C)C)cn2ncnc12 [Example 306]
33 | 3 nM | 0.85 nM | 657 nM | COc1cc(-c2[nH]c3cnc(N4CCC(NC(C)C)CC4)cc3c2C(C)C)cn2ncnc12 [Example 307]
34 | 7.9 nM | 25 nM | 159 nM | COc1cc(-c2[nH]c3cnc(C4CCC(NC5COC5)CC4)cc3c2C(C)C)cn2ncnc12 (stereo not drawn) [Example 308]
35 | 7.3 nM | 49 nM | 133 nM | COc1cc(-c2[nH]c3cnc(C4CCC(N5CC6(COC6)C5)CC4)cc3c2C(C)C)cn2ncnc12 (stereo not drawn) [Example 309]
36 | 13 nM | 32 nM | 640 nM | COc1cc(-c2[nH]c3cnc(C4CCC(NCC(C)(C)C)CC4)cc3c2C(C)C)cn2ncnc12 (stereo not drawn) [Example 310]
37 | 8.5 nM | 114 nM | 920 nM | COc1cc(-c2[nH]c3cnc(C4CCNCC4)cc3c2C(C)C)cn2ncnc12 [Example 312]
38 | 2.9 nM | 0.27 nM | 2420 nM | COc1cc(-c2[nH]c3cnc(N4CCC(NC(C)C(C)C)CC4)cc3c2C(C)C)cn2ncnc12 (stereo not drawn) [Example 313]
39 | 4.3 nM | 1.5 nM | 3700 nM | COc1cc(-c2[nH]c3cnc(N4CCC(N(C)C5COC5)CC4)cc3c2C(C)C)cn2ncnc12 [Example 314]
40 | 7.6 nM | 47 nM | 166 nM | COc1cc(-c2[nH]c3cnc(C4CCC(NC(C)C)CC4)cc3c2C(C)C)cn2ncnc12 (stereo not drawn) [Example 315]
41 | 9.5 nM | 33 nM | 80 nM | CCN(C)C1CCC(c2cc3c(C(C)C)c(-c4cc(OC)c5ncnn5c4)[nH]c3cn2)CC1 (stereo not drawn) [Example 316]
42 | 2.1 nM | 7.1 nM | 34 nM | COc1cc(-c2[nH]c3cnc(C4CCC(NC5CCOC5)CC4)cc3c2C(C)C)cn2ncnc12 (stereo not drawn) [Example 317]
43 | 6 nM | 21 nM | 846 nM | Cc1c(-c2[nH]c3cnc(C4CCC(NC(C)C)CC4)cc3c2C(C)C)cn2ncnc2c1C (stereo not drawn) [Example 318]
44 | 12 nM | 3.7 nM | 14400 nM | COc1cc(-c2[nH]c3cnc(N4CCN(CC(N)=O)CC4)cc3c2C(C)C)cn2ncnc12 [Example 319]
45 | 4.4 nM | 2 nM | 3010 nM | COc1cc(-c2[nH]c3cnc(N4CCC(NC5COC5)CC4)cc3c2C(C)C)cn2ncnc12 [Example 320]
46 | 2.8 nM | 0.64 nM | 1010 nM | COc1cc(-c2[nH]c3cnc(N4CCC(NC5CCOCC5)CC4)cc3c2C(C)C)cn2ncnc12 [Example 321]
47 | 2.1 nM | 0.23 nM | 1450 nM | COc1cc(-c2[nH]c3cnc(N4CCC(NCC5(C)COC5)CC4)cc3c2C(C)C)cn2ncnc12 [Example 322]
48 | 4.5 nM | 20 nM | 258 nM | COc1cc(-c2[nH]c3cnc(C4CCC(NC(C)C)CC4)cc3c2C(C)C)cn2ncnc12 (stereo not drawn) [Example 323]
49 | 3 nM | 20 nM | 283 nM | COc1cc(-c2[nH]c3cnc(C4CCC(N5CCC5)CC4)cc3c2C(C)C)cn2ncnc12 (stereo not drawn) [Example 324]
50 | 2.4 nM | 12 nM | 512 nM | COc1cc(-c2[nH]c3cnc(C4CCC(NCC(C)(C)C)CC4)cc3c2C(C)C)cn2ncnc12 (stereo not drawn) [Example 325]
51 | 14 nM | 78 nM | 1220 nM | Cc1c(-c2[nH]c3cnc(C4CCC(NC(C)C)CC4)cc3c2C(C)C)cn2ncnc2c1C (stereo not drawn) [Example 326]
52 | 7.1 nM | 17 nM | 771 nM | Cc1c(-c2[nH]c3cnc(C4CCC(NC5CCOC5)CC4)cc3c2C(C)C)cn2ncnc2c1C (stereo not drawn) [Example 327]
